These results are taken from ChEMBL document CHEMBL1201862, “PubChem BioAssay data set” (2004).

The target of assay [1] is T1, High affinity choline transporter 1 (Homo sapiens, UniProt Q9GZV3).
T1 sequence (Q9GZV3 whole entry): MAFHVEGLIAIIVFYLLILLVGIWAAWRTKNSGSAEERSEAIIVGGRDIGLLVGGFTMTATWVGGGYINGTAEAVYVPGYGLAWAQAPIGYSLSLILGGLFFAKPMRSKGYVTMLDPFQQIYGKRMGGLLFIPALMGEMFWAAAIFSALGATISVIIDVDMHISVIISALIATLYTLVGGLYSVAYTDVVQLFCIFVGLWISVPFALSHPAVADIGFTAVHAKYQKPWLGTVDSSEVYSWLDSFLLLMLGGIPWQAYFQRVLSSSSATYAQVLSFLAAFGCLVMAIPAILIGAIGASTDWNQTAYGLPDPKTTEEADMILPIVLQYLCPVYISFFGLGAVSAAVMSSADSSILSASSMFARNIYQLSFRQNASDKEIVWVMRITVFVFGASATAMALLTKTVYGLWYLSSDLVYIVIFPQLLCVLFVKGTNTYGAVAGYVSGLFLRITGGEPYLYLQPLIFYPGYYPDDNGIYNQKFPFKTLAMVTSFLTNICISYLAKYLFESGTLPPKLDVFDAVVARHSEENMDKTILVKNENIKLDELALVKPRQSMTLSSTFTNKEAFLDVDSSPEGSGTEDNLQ
The assay is described as follows: human choline transporter radiolabel uptake blockers – cell-based, 3H-choline uptake, CHT LV-AA trafficking mutant, CRC, dose response (AID 602208). It is filed as functional.

In assay [2] the target is T1, High affinity choline transporter 1. The assay is described as follows: human choline transporter blockers, potency – cell-based, 10-point CRC, membrane potential dye, dose response (AID 588401).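 Further: membrane potential dye fluorescence of choline-evoked depolarization via CHT.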 It is filed as functional.
The target is the same in assay [3]. The assay is described as follows: human choline transporter blockers, potency – cell-based, 5-point CRC, membrane potential dye, dose response (AID 504840). In kind it is functional.
Assay [4] in a line: inhibition of ARNT PAS-B/TACC3 complex formation – biochemical, AlphaScreen, cherry-picked samples, confirmation (AID 651703).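 Further: His-tagged ARNT PAS-B domain paired with GST-TACC3 E629A dimer coactivator fragment; potency of inhibitors that break up the complex and lower AlphaScreen signal.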 It is filed as functional, Homo sapiens. In general terms: Alpha assays give light when donor and acceptor beads are brought close together.
Assay [5] has as its target Dual specificity protein phosphatase 3 (Homo sapiens, UniProt P51452). The assay is described as follows: VHR phosphatase inhibition, dose response, selectivity assay for STEP inhibitor project, biochemical (AID 602374). In kind it is functional. The settings on record: read-out: IC50_Mean.
Assay [6] deals with Tyrosine-protein phosphatase non-receptor type 11 (Homo sapiens, UniProt Q06124). The assay is described as follows: PTPN11 enzyme inhibitors – biochemical, selectivity assay for STEP inhibitor project, dose response (AID 602367). In kind it is functional. The settings on record: read-out: IC50_Mean.
The target of assay [7] is Tyrosine-protein phosphatase non-receptor type 5 (Homo sapiens, UniProt P54829). As to the kind of experiment: PTPN5 enzyme inhibition – biochemical, fluorescence intensity, uHTS hits, confirmation (AID 602372). It is filed as functional. The settings on record: read-out: IC50_Mean.
Assay [8] deals with Glucose-6-phosphate 1-dehydrogenase (Homo sapiens, UniProt P11413). As to the kind of experiment: inhibition of Homo sapiens G6PD, dose series – biochemical, fluorescence, selectivity assay for P. falciparum G6PD inhibitor project, dose response (AID 504792). In kind it is functional.
A short description of assay [9]: THP-1 cell cytotoxicity, dose response, cytotoxicity control for non-replicating M. tuberculosis project (AID 489025). It is filed as functional.
The nature of assay [10]: Vero E6 cell cytotoxicity, dose response, cytotoxicity control for non-replicating M. tuberculosis project, secondary assay (AID 492998). The settings on record: Vero C1008. In kind it is functional, VeroE6.
In assay [11] the target is T2, Microphthalmia-associated transcription factor (Homo sapiens, UniProt O75030).
T2 sequence (O75030 whole entry): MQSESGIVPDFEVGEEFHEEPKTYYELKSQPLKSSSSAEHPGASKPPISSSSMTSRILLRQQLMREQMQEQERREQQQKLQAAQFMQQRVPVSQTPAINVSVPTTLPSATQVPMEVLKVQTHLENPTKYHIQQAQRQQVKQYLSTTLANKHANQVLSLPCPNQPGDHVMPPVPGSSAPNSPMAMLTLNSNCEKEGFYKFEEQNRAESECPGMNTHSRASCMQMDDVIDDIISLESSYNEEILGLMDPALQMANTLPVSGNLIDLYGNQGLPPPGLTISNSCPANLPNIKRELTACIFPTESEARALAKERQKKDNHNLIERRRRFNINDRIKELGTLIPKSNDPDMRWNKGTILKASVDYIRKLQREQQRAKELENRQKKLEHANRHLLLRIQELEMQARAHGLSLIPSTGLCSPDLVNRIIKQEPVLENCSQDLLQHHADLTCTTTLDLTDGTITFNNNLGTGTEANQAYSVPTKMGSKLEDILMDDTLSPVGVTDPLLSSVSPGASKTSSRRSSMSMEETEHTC
As to the kind of experiment: reducers of TRPM1 reporter luminescence, concentration series – cell-based, SK-MEL-5, cherry-picked, set 3, MITF inhibitor project, dose response (AID 493073).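 Further: SK-MEL-5 melanoma cells with luciferase driven by the MITF target TRPM1 promoter.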 It is filed as functional.

Assay [12] has as its target Mitochondrial peptide methionine sulfoxide reductase (Bos taurus, UniProt P54149). The assay is described as follows: Absorbance-based biochemical high throughput dose response assay for activators of Methionine sulfoxide reductase A (MsrA). It is filed as functional.
A short description of assay [13]: NIH3T3 cell viability loss – ATP luminescence, mouse fibroblasts, counter-screen, dose response (AID 2010).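 Further: cells exposed to compound for about 90 hours before reading.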 It is filed as functional, cell-based.
Assay [14] is described as follows: Trypanosoma cruzi growth suppression in host cells – NIH3T3 host cells, beta-gal luminescence, confirmation (AID 2044).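 Further: intracellular parasites grown in NIH/3T3 mouse fibroblasts as host cells; luminescent beta-galactosidase reporter signal from transgenic T. cruzi replicating inside host cells; inhibitors lower the luminescence signal.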 In kind it is functional, cell-based.
A short description of assay [15]: cells. In kind it is functional.

Activity calls are given as the source filed them. A value given as a limit tells only on which side of the number the result lay.

Sequence of Dual specificity protein phosphatase 3 (P51452 whole entry): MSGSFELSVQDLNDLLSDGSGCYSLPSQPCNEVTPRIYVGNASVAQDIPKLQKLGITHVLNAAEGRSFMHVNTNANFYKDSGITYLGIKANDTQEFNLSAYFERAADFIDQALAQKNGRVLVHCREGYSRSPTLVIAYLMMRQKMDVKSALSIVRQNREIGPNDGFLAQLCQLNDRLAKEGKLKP
Sequence of Tyrosine-protein phosphatase non-receptor type 11 (Q06124 whole entry): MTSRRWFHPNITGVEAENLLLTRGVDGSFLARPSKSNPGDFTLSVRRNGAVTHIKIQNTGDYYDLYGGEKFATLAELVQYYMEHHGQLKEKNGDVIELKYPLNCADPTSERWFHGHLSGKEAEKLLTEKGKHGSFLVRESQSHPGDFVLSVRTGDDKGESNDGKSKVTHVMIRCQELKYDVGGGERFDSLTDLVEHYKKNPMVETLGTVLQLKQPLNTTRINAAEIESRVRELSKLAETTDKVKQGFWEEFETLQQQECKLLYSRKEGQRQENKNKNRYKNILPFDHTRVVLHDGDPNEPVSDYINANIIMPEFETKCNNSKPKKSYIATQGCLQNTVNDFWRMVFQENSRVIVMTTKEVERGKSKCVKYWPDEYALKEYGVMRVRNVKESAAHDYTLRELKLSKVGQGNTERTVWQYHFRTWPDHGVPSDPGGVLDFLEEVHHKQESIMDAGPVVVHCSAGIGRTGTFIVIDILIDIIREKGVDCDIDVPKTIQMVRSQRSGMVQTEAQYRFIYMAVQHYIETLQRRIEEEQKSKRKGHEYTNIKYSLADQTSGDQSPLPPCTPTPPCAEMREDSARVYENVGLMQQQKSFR
Sequence of Mitochondrial peptide methionine sulfoxide reductase (P54149 whole entry): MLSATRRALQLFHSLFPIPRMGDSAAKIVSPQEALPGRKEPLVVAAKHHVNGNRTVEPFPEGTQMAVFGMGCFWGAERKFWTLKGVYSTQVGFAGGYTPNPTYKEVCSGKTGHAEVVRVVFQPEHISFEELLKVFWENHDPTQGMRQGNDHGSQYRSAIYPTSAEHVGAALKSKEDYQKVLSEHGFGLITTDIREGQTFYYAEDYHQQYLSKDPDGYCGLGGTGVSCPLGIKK
Sequence of Glucose-6-phosphate 1-dehydrogenase (P11413 whole entry): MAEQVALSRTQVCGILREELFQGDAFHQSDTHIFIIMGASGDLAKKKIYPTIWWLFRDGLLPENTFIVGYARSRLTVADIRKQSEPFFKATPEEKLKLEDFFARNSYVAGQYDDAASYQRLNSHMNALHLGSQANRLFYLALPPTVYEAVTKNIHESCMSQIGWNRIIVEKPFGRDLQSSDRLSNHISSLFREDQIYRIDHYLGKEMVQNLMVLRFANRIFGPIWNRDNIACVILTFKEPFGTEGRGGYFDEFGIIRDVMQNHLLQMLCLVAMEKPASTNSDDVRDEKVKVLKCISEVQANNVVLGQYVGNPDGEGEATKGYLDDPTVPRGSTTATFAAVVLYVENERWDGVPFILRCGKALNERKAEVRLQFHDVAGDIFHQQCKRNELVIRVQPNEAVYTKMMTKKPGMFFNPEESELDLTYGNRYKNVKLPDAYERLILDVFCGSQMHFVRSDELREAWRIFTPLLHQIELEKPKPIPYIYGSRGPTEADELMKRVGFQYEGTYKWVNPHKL
Sequence of Tyrosine-protein phosphatase non-receptor type 5 (P54829 whole entry): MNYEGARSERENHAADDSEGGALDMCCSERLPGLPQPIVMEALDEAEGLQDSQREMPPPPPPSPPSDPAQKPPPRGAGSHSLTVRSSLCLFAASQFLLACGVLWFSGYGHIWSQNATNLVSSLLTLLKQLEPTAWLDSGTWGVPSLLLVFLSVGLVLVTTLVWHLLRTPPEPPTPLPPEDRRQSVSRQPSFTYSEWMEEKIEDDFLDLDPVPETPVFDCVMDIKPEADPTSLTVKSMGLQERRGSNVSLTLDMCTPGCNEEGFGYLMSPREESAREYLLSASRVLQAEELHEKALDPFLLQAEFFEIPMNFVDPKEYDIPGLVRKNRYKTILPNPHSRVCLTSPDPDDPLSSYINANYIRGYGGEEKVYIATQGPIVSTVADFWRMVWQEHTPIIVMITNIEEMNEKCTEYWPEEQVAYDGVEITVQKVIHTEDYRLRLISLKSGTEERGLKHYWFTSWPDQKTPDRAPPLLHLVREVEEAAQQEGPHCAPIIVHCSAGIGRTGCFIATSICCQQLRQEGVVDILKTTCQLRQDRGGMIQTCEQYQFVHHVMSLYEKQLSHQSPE

Regarding `COc1ccc(C(=O)NC2CCc3ccccc32)cc1OC1CCN(C(C)C)CC1` (stereo not given), the IC50 was 2.12 µM (active) in [1], 3.36 µM (active) in assay [2] and 5.55 µM (active) in [3].

Broadly, the AC50 is the midpoint of the concentration-response curve, whichever way the signal moves. With `CCOc1ccc2c(c1)C(N(CCN1CCOCC1)C(=O)Nc1ccccc1)CC(C)(C)O2` (stereo not given), the half-maximal activity concentration (AC50) in assay [4] is 84 µM (active).

Take `CCN1CCN(C(=S)c2ccc(Cl)c(Cl)c2)CC1`: the IC50 in assay [5] is 0.81 µM (active); in assay [6], 0.843 µM (active); in assay [7], 18.2 µM (active); in assay [8] it was > 80 µM (inactive).

By CC50 is commonly meant the concentration giving 50% cytotoxicity. The term EC50 denotes the midpoint of the concentration-response curve. `O=C(N/N=C/c1ccc([N+](=O)[O-])s1)c1cccc(Br)c1`: the half-maximal cytotoxic concentration (CC50) in [9] was 7.59 µM (active); in [10], 6.21 µM (active). Also, the AC50 in [11] is 4.83 µM (active). Besides, the figures for the EC50 in [12], in assay [13] and in [14] were > 104 µM (inactive), 5.39 µM (active) and 0.754 µM (active), respectively. The IC50 in [15] was 4.37 µM (active).
